Source: patent US20240140986A1, “SYNTHETIC URSOLIC ACID DERIVATIVES AND METHODS OF USE THEREOF” (REATA PHARMACEUTICALS, INC., priority 2021, published 2024)
Read-outs that look alike come from different tables or passages of the source.

Tests used:
[1] = tested on: IFNγ-induced NO production in RAW 264.7 cells; assay: Nitric Oxide Suppression Assay (IFNγ-induced NO, Griess nitrite readout); format: cell-based, mouse; settings: for IC50: Mus musculus, read-out: Avg NO IC50 (nM) (Mean ± SD); for Avg NO IC50 Relative to RTA402 (fold): Table 2, ratio to RTA402
Procedure, shortened: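 Nitrite, a surrogate for NO, was measured by Griess reagent (525 nm) and quantified from standards by linear regression, expressed as percent of DMSO plus IFNγ control to give IC50. RAW 264.7 cells had 2 h compound pretreatment, then 24 h with 20 ng/mL IFNγ; WST-1 checked viability.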

[2] = tested on: Nrf2 / ARE-dependent luciferase in AREc32 reporter cell line; assay: AREc32 luciferase reporter activation (Nrf2 induction); format: cell-based, human; settings: for EC (2-fold): Homo sapiens, Arec32; for Relative Avg AREc32 EC2X Relative to RTA402 (fold): ratio to RTA402
Procedure, shortened: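 EC2X is the concentration raising luminescence 2-fold above DMSO-treated cells, from a nonlinear-regression dose–response fit. Compounds (0.03–1000 nM) were applied for nineteen hours, starting one day after seeding 20,000 reporter cells per well. Luciferase was read with One-Glo reagent.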

[3] = RAW264.7, Table 2, RAW 264.7 cells, 2 h pretreatment, 20 ng/mL interferon gamma 24 h
[4] = RAW264.7, Table 3, ursolic acid derivatives
[5] = Table 2, concentration increasing luminescence 2-fold above vehicle, 19 h treatment, read-out: Avg AREc32 EC2X (nM) (Mean ± SD)
[6] = Table 3, ursolic acid derivatives, read-out: Avg ARE EC-2X (nM) (Mean ± SD)

IC50 [1, 3] | IC50 [1, 4] | Avg NO IC50 Relative to RTA402 (fold) [1] | SMILES | EC (2-fold) [2, 5] | EC (2-fold) [2, 6] | Relative Avg AREc32 EC2X Relative to RTA402 (fold) ([2]; Table 2)
2.4 ± 1.2 nM | 2.4 ± 1.2 nM | 1.27 ± 0.31 fold | C[C@@H]1[C@H]2[C@H]3C(=O)C=C4[C@@]5(C)C=C(C#N)C(=O)C(C)(C)[C@@H]5CC[C@@]4(C)[C@]3(C)CC[C@@]2(CN2CCC2=O)CC[C@H]1C [Compound T14] | 3.91 ± 0.52 nM | 3.91 ± 0.52 nM | 0.349 ± 0.018 fold
1.86 ± 0.32 nM | 1.86 ± 0.32 nM | 1.25 ± 0.21 fold | C[C@@H]1[C@H]2[C@H]3C(=O)C=C4[C@@]5(C)C=C(C#N)C(=O)C(C)(C)[C@@H]5CC[C@@]4(C)[C@]3(C)CC[C@@]2(CO)CC[C@H]1C [Compound T13] | 4.95 ± 0.63 nM | 4.95 ± 0.63 nM | 0.358 ± 0.016 fold
35.8 ± 6.1 nM | – | 14.80 ± 8.92 fold | C[C@@H]1[C@H]2[C@H]3C(=O)C=C4[C@@]5(C)C=C(C#N)C(=O)C(C)(C)[C@@H]5CC[C@@]4(C)[C@]3(C)CC[C@@]2(n2cccn2)CC[C@H]1C [Compound T64] | 64 ± 7.6 nM | – | 6.07 ± 0.87 fold
5.08 ± 1.51 nM | 5.08 ± 1.51 nM | 1.25 ± 0.47 fold | CNC(=O)N(C)C[C@]12CC[C@@H](C)[C@H](C)[C@H]1[C@H]1C(=O)C=C3[C@@]4(C)C=C(C#N)C(=O)C(C)(C)[C@@H]4CC[C@@]3(C)[C@]1(C)CC2 [Compound T36] | 5.21 ± 1.17 nM | 5.21 ± 1.17 nM | 0.441 ± 0.075 fold
21 ± 7.6 nM | 21 ± 7.6 nM | 5.91 ± 0.94 fold | C[C@@H]1[C@H]2[C@H]3C(=O)C=C4[C@@]5(C)C=C(C#N)C(=O)C(C)(C)[C@@H]5CC[C@@]4(C)[C@]3(C)CC[C@@]2(N2CCC2=O)CC[C@H]1C [Compound T74] | 20 ± 2 nM | 20 ± 2 nM | 1.67 ± 0.13 fold
3.64 ± 1.69 nM | – | 1.15 ± 0.32 fold | C[C@@H]1[C@H]2[C@H]3C(=O)C=C4[C@@]5(C)C=C(C#N)C(=O)C(C)(C)[C@@H]5CC[C@@]4(C)[C@]3(C)CC[C@@]2(CNC(=O)C(F)F)CC[C@H]1C [Compound T28] | 4.33 ± 1.62 nM | – | 0.331 ± 0.101 fold
17.4 ± 2.5 nM | 17.4 ± 2.5 nM | 5.79 ± 0.73 fold | C[C@@H]1[C@H]2[C@H]3C(=O)C=C4[C@@]5(C)C=C(C#N)C(=O)C(C)(C)[C@@H]5CC[C@@]4(C)[C@]3(C)CC[C@@]2(Cn2ccnc2)CC[C@H]1C [Compound T51] | 15.3 ± 3.6 nM | 15.3 ± 3.6 nM | 1.2 ± 0.1 fold
